Results published in patent US9815788B2, “Anti-angiogenic compounds” (University College Dublin National University of Ireland, …, priority 2012, dated 2017).
Where a name gives a salt, the structure may show the parent alone.

Assays:
[1] = system: OE33P radio-sensitive oesophageal adenocarcinoma cells; experiment: Surviving fraction (colony formation), OE33P; type: cell-based, human; settings: 10 μM, 24 hours
Method: (§1) OE33P radio-sensitive and OE33R radio-resistant oesophageal adenocarcinoma cells were used to test the effects of the compounds 11B HCl and 11B CC11 HCl on cell survival. Cells were maintained in RPMI media supplemented with 10% foetal calf serum, penicillin (100 U/ml) and streptomycin (100 μg/ml). Cells were seeded in 6 well plates and left to incubate for 24 hours. The media was replaced with solutions containing 10 μM of 11B HCl, 11B CC11 HCl or fresh media as a control. After 24 hours of treatment, media was replaced. When control colonies had grown sufficiently large, the media was disposed and the cells washed with PBS. The cells were fixed with methanol and stained with crystal violet. The surviving fraction, the ability of the cells to form colonies was then determined.
as §1, with “replaced and cells were subjected to 2Gy radiation.” for “replaced.”, “Surviving” for “The surviving”
OE33P radio-sensitive and OE33R radio-resistant oesophageal adenocarcinoma cells were used to test the effects of the compounds 11B HCl and 11B CC11 HCl on cell survival. Cells were maintained in RPMI media supplemented with 10% foetal calf serum, penicillin (100 U/ml) and streptomycin (100 μg/ml). Cells were seeded in 6 well plates and left to incubate for 24 hours. […] Surviving fraction, the ability of the cells to form colonies was then determined.

[2] = system: zebrafish hyaloid vasculature; experiment: Quantification of primary hyaloid vasculature branch number in Tg(fli1:EGFP) zebrafish; type: in vivo; settings: for dose-dependent inhibition of development of hyaloid vessels: decreasing doses 20, 10, 7.5, 5, 2.5, 1 and/or 0.5 μM, HCl salt; for inhibition of developmental angiogenesis of the hyaloid vasculature (number of primary hyaloid vessels): typically 10 μM or 5 μM, from 24 hpf, vs DMSO control
Procedure, shortened: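 Tg(fli1:EGFP) larvae raised at 28° C on a 14/10 hr light cycle, euthanised and fixed overnight in 4% PFA at 4° C. Dissected lenses imaged by epi-fluorescence; hyaloid vessel patterning compared with DMSO controls and the archetypal pattern.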

[3] = system: zebrafish intersegmental vessels; experiment: Quantification of intersegmental vessel number in zebrafish; type: in vivo; settings: for inhibition of developmental angiogenesis of intersegmental vessels (number of intersegmental vessels): 10 μM, from 6 hpf; for dose-dependent inhibition of development of intersegmental vessels: decreasing doses 10, 7.5, 5 and/or 1 μM, HCl salt
Procedure, shortened: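 Zebrafish larvae were dechorionated by hand, euthanised, and fixed overnight at 4° C. in 4% PFA before being analysed. Following PBS washes, they were placed on depression slides and examined by epi-fluorescence on an Olympus SZX16 fluorescent microscope. Intersegmental vessels were counted, and the mean count was plotted for each drug.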

[4] = system: retinal blood vessels; experiment: Ocular neovascularisation in mouse oxygen-induced retinopathy model; type: in vivo, C57BL/6J mice; settings: 5 μM injected intravitreally on P13, culled P17; compared to P17 control
Method: Postnatal day (P) 7 C57BL/6J mice together with their dams were treated in 75% oxygen (hyperoxia) for 5 days causing regression of retinal blood vessels. They were returned to normoxia (relative hypoxia) on P12, causing rapid regrowth of the retinal blood vessels, 5 μM 11B_CC11_HCl, 5 μM 11B_CC16_HCl, 5 μM pazopanib or 2.5 mg/ml avastin was injected intravitreally on P13. The mice were culled on P17, eyes fixed in 4% paraformaldehyde at 4° C. overnight, flat mounted and retinas stained for isolectin (red, stains vasculature).

Oc1ccccc1/C=C/c1ccc2ccccc2n1 [11B HCl]
surviving fraction ([1]; no irradiation): significantly reduce | surviving fraction ([1]; treated prior to 2Gy irradiation): significantly reduces

C/C(=C\c1ccccc1O)c1ccc2ccccc2n1.Cl [Compound 11B_CC11_HCl, (E)-2-(2-Quinolin-2-yl-propenyl)-phenol HCl salt]
surviving fraction ([1]; no irradiation): significantly reduce | dose-dependent inhibition of development of hyaloid vessels [2]: inhibit developmental angiogenesis of zebrafish hyaloid vasculature in a dose-dependent statistically significant manner | dose-dependent inhibition of development of hyaloid vessels ([2]; listed as 11B-CC11 HCl): dose-dependent effect | inhibition of developmental angiogenesis of the hyaloid vasculature (number of primary hyaloid vessels) [2]: inhibit developmental angiogenesis of the zebrafish hyaloid vasculature in a statistically significant manner | inhibition of developmental angiogenesis of intersegmental vessels (number of intersegmental vessels) [3]: inhibit developmental angiogenesis of zebrafish intersegmental vessels in a statistically significant manner | dose-dependent inhibition of development of intersegmental vessels [3]: inhibit developmental angiogenesis of zebrafish intersegmental vessels in a dose-dependent statistically significant manner | dose-dependent inhibition of development of intersegmental vessels ([3]; listed as 11B-CC11 HCl): dose-dependent effect | inhibition of neovascularisation (avascular region as percentage of whole retina) [4]: inhibit neovascularisation

Cl.Oc1ccccc1/C=C\c1ccc2ccccc2n1 [Compound 11B_Z_HCl, (Z)-2-(2-(Quinolin-2-yl)vinyl) phenol HCl salt]
inhibition of developmental angiogenesis of the hyaloid vasculature (number of primary hyaloid vessels) [2]: inhibit developmental angiogenesis of the zebrafish hyaloid vasculature in a statistically significant manner | inhibition of developmental angiogenesis of intersegmental vessels (number of intersegmental vessels) [3]: inhibit developmental angiogenesis of zebrafish intersegmental vessels in a statistically significant manner
